Here are results for 31 compounds from ChEMBL document CHEMBL3045686, “Insecticidal Activity of N-Acyl-N-(4-aryloxybenzyl)pyrazole-5-carboxamides” (2003).

Molecules are shown by their SMILES.

By mortality is commonly meant the percentage killed.

The first assay concerns Spodoptera litura. Briefly: Insecticidal activity Spodoptera litura third-instar larvae fed on compound pre-treated cabbage leaf disks assessed as insect mortality at 200 ppm measured 5 days after compound treatment. The note with it: foliar. In kind it is functional.
In the case of `CCc1cc(C(=O)N(Cc2ccc(Oc3ccc(Cl)cc3)cc2)C(C)=O)n(C)n1`, the mortality at 200 ppm is greater than 80%.

With `CCc1cc(C(=O)N(Cc2ccc(Oc3ccc(F)cc3)cc2)C(C)=O)n(C)n1`, the mortality at 200 ppm is greater than 80%.

For `CCCCc1cc(C(=O)N(Cc2ccc(Oc3ccc(C#N)cc3)cc2)C(C)=O)n(C)n1`, the mortality at 200 ppm was less than 80%.

As to `CCc1cc(C(=O)N(Cc2ccc(Oc3ccc(C)cc3)cc2)C(C)=O)n(C)n1`, the mortality at 200 ppm is greater than 80%.

`CC(=O)N(Cc1ccc(Oc2ccc(C#N)cc2)cc1)C(=O)c1cc(C(C)(C)C)nn1C`: the mortality at 200 ppm was less than 80%.

On to `CCCCCc1cc(C(=O)N(Cc2ccc(Oc3ccc(C#N)cc3)cc2)C(C)=O)n(C)n1`, for which the mortality at 200 ppm was less than 80%.

Take `CC(=O)N(Cc1ccc(Oc2ccc(C#N)cc2)cc1)C(=O)c1cc(CC(C)C)nn1C`: the mortality at 200 ppm was greater than 80%.

For the compound `CCCCOc1cc(C(=O)N(Cc2ccc(Oc3ccc(C#N)cc3)cc2)C(C)=O)n(C)n1`, the mortality at 200 ppm was greater than 80%.

As to `CCc1cc(C(=O)N(Cc2ccc(Oc3ccc(OC)cc3)cc2)C(C)=O)n(C)n1`, the mortality at 200 ppm was less than 80%.

Regarding `CCc1cc(C(=O)N(Cc2ccc(Oc3ccccc3)cc2)C(C)=O)n(C)n1`, the mortality at 200 ppm is less than 80%.

The next assay has as its system Spodoptera litura. Briefly: Insecticidal activity Spodoptera litura third-instar larvae fed on compound pre-treated cabbage leaf disks assessed as insect mortality at 50 ppm measured 5 days after compound treatment. In kind it is functional. The note with it: foliar.
For the compound `CCc1cc(C(=O)NCc2ccc(Oc3ccc(C#N)cc3)cc2)n(C)n1`, the mortality at 50 ppm was greater than 80%.

For `CCc1cc(C(=O)N(Cc2ccc(Oc3ccc(C#N)cc3)cc2)C(=O)C(C)(C)C)n(C)n1`, the mortality at 50 ppm was greater than 80%.

For the compound `CC(=O)N(Cc1ccc(Oc2ccc(C#N)cc2)cc1)C(=O)c1cc(C)nn1C`, the mortality at 50 ppm was greater than 80%.

For the compound `CC(=O)N(Cc1ccc(Oc2ccc(C#N)cc2)cc1)C(=O)c1cc(C(C)C)nn1C`, the mortality at 50 ppm was greater than 80%.

As to `CC(=O)N(Cc1ccc(Oc2ccc(C#N)cc2)cc1)C(=O)c1cc(OC(C)C)nn1C`, the mortality at 50 ppm is greater than 80%.

For `COc1cc(C(=O)N(Cc2ccc(Oc3ccc(C#N)cc3)cc2)C(C)=O)n(C)n1`, the mortality at 50 ppm was greater than 80%.

As for `CCOc1cc(C(=O)N(Cc2ccc(Oc3ccc(C#N)cc3)cc2)C(C)=O)n(C)n1`, the mortality at 50 ppm is greater than 80%.

In another assay the test system is Spodoptera litura. The experiment in a line: Insecticidal activity Spodoptera litura third-instar larvae fed on compound pre-treated cabbage leaf disks assessed as insect mortality at 3.1 ppm measured 5 days after compound treatment. In kind it is functional. The following applies: foliar.
Turning to `CCc1cc(C(=O)N(Cc2ccc(Oc3ccc(SC)cc3)cc2)C(C)=O)n(C)n1`, the mortality at 3.1 ppm is greater than 80%.

For the compound `CCc1cc(C(=O)N(Cc2ccc(Oc3ccc(C#N)cc3)cc2)C(=O)C(C)C)n(C)n1`, the mortality at 3.1 ppm was greater than 80%.

In the case of `CCc1cc(C(=O)N(Cc2ccc(Oc3ccc(C#N)cc3)cc2)C(C)=O)n(C)n1`, the mortality at 3.1 ppm is greater than 80%.

In another assay the test system is Spodoptera litura. The experiment in a line: Insecticidal activity Spodoptera litura third-instar larvae fed on compound pre-treated cabbage leaf disks assessed as insect mortality at 13 ppm measured 5 days after compound treatment. The note with it: foliar. In kind it is functional.
In the case of `CCCc1cc(C(=O)N(Cc2ccc(Oc3ccc(C#N)cc3)cc2)C(C)=O)n(C)n1`, the mortality at 13 ppm was greater than 80%.

For `CCCC(=O)N(Cc1ccc(Oc2ccc(C#N)cc2)cc1)C(=O)c1cc(CC)nn1C`, the mortality at 13 ppm was greater than 80%.

For `CCC(=O)N(Cc1ccc(Oc2ccc(C#N)cc2)cc1)C(=O)c1cc(CC)nn1C`, the mortality at 13 ppm was greater than 80%.

On to `CCc1cc(C(=O)N(Cc2ccc(Oc3ccc(C(F)(F)F)cc3)cc2)C(C)=O)n(C)n1`, for which the mortality at 13 ppm was greater than 80%.

Take `CCc1cc(C(=O)N(Cc2ccc(Oc3ccc([N+](=O)[O-])cc3)cc2)C(C)=O)n(C)n1`: the mortality at 13 ppm was greater than 80%.

Take `CCc1cc(C(=O)N(Cc2ccc(Oc3ccc(C#N)cc3)cc2)C(=O)C(C)CC)n(C)n1` (stereo unspecified): the mortality at 13 ppm was greater than 80%.

Consider `CCc1cc(C(=O)N(Cc2ccc(Oc3ccc(C#N)cc3)cc2)C(=O)C2CC2)n(C)n1`, for which the mortality at 13 ppm was greater than 80%.

Turning to `CCC(C)c1cc(C(=O)N(Cc2ccc(Oc3ccc(C#N)cc3)cc2)C(C)=O)n(C)n1` (stereo unspecified), the mortality at 13 ppm was greater than 80%.

`CC(=O)N(Cc1ccc(Oc2ccc(C#N)cc2)cc1)C(=O)c1cc(C2CC2)nn1C`: the mortality at 13 ppm was greater than 80%.

Regarding `CCc1cc(C(=O)N(Cc2ccc(Oc3ccc(C#N)cc3)cc2)C(=O)CC(C)C)n(C)n1`, the mortality at 13 ppm was greater than 80%.

As for `CCCCC(=O)N(Cc1ccc(Oc2ccc(C#N)cc2)cc1)C(=O)c1cc(CC)nn1C`, the mortality at 13 ppm was greater than 80%.
